Test results reported in patent publication US20120255051A1, “HERBICIDE TOLERANT PLANTS” (priority 2009, published 2012).

System: Brassica plants comprising mutant AHAS alleles
Assay: Field trial, pre-planting treatment (0, 10, 20, 30 g a.i./ha), two locations in Canada: ERG, EST1, EST2, PPTOX, VIG1, VIG2, VIG3 scores
Type: in vivo, Brassica napus
Conditions: for establishment (EST1) score Av, 14 days after sowing / emergence (ERG) score Av: AHAS1 WT
Source text: Tests were set up and conducted to asses the growth and performance of plants comprising AHAS full knock-out alleles, and to further analyze the correlation between the presence of full knockout and missense AHAS genes in Brassica plants and plant growth and herbicide tolerance of the Brassica plants in the field. To this end, the Brassica plants identified in Example 1 and 2 were backcrossed two times with an elite parent line, and subsequently selfed twice to obtain homozygous plants (BC2S2). Plants were grown as row plots in a split plot design with three replicates (main plots=herbicide treatments, subplots=genotypes) at two locations in Canada. Treatment pre-planting was carried out on the soil about two days before sowing with a dose of 0 (treatment A), 10 (treatment B), 20 (treatment C) or 30 (treatment D) g a.i./ha of thiencarbazone methyl. Herbicide tolerance was measured by scoring for different parameters. The parameter emergence (ERG) was scored at the cotyledon stage on a scale 1-9, where 1 means late emergence and 9 means early emergence. Establishment was scored 14 days after sowing (EST1) and 21 days after sowing (EST2). Scores were from 1 to 9, where 1 is the worst establishment (least plants that emerged), and 9 is the best establishment (most plants emerged). Phytotoxicity (PPTOX) was determined after establishment. Plants were evaluated on a scale of 1 to 9, where 1=completely yellowing, 5=50% of plant is yellow and 9=no yellowing. The vigor scores (see above) were determined at 1-2 leaf stage (VIG1), 7 days after VIG1 (VIG2) and 14 days after VIG1 (VIG3). The average values (Av) and standard deviations (SD) of the scores for the different parameters are represented in Table 7a-g.
Further, the contribution of the knock-out allele to herbicide tolerance conferred by the missense allele was calculated. First, the scores were corrected for a possible effect of the growth per se, independent of herbicide treatment. To this end, the scores for treatments B, C and D were divided by the scores for treatment A for the same genotype and for the same parameter (corrected herbicide tolerance scores). Next, the effect of the knock-out allele to these corrected herbicide tolerance scores obtained by the missense allele was calculated. Therefore, the corrected herbicide tolerance scores for the missense—knock-out allele combination was divided by the corrected herbicide tolerance scores for the missense allele—wild-type combination. In case the knock-out allele has no effect on herbicide tolerance conferred by the missense allele, this ratio should be 1. In case the knock-out allele positively contributes to the herbicide tolerance conferred by the missense allele, this ratio should be higher than 1. The results for the contribution of the knock-out allele to herbicide tolerance conferred by the missense allele as calculated above are shown in table 8.

[1] = AHAS3 HETO111 (HETO108+HETO111 series), treatment B 10 g a.i./ha pre-planting, Location B
[2] = AHAS3 HETO111 (HETO108+HETO111 series), treatment C 20 g a.i./ha pre-planting, Location A
[3] = AHAS3 HETO111 (HETO108+HETO111 series), treatment C 20 g a.i./ha pre-planting, Location B
[4] = AHAS3 HETO111 (HETO108+HETO111 series), treatment D 30 g a.i./ha pre-planting, Location A
[5] = AHAS3 HETO111 (HETO108+HETO111 series), treatment D 30 g a.i./ha pre-planting, Location B
[6] = AHAS3 HETO111 (HETO112+HETO111 series), treatment B 10 g a.i./ha pre-planting, Location A
[7] = AHAS3 HETO111 (HETO112+HETO111 series), treatment B 10 g a.i./ha pre-planting, Location B
[8] = AHAS3 HETO111 (HETO112+HETO111 series), treatment C 20 g a.i./ha pre-planting, Location A
[9] = AHAS3 HETO111 (HETO112+HETO111 series), treatment C 20 g a.i./ha pre-planting, Location B
[10] = AHAS3 HETO111 (HETO112+HETO111 series), treatment D 30 g a.i./ha pre-planting, Location A
[11] = AHAS3 HETO111 (HETO112+HETO111 series), treatment D 30 g a.i./ha pre-planting, Location B
[12] = AHAS3 WT (HETO108+HETO104 series), treatment B 10 g a.i./ha pre-planting, Location A
[13] = AHAS3 WT (HETO108+HETO104 series), treatment B 10 g a.i./ha pre-planting, Location B
[14] = AHAS3 WT (HETO108+HETO104 series), treatment C 20 g a.i./ha pre-planting, Location A
[15] = AHAS3 WT (HETO108+HETO104 series), treatment C 20 g a.i./ha pre-planting, Location B
[16] = AHAS3 WT (HETO108+HETO104 series), treatment D 30 g a.i./ha pre-planting, Location A
[17] = AHAS3 WT (HETO108+HETO104 series), treatment D 30 g a.i./ha pre-planting, Location B
[18] = AHAS3 WT (HETO108+HETO111 series), treatment B 10 g a.i./ha pre-planting, Location A
[19] = AHAS3 WT (HETO108+HETO111 series), treatment B 10 g a.i./ha pre-planting, Location B
[20] = AHAS3 WT (HETO108+HETO111 series), treatment C 20 g a.i./ha pre-planting, Location A
[21] = AHAS3 WT (HETO108+HETO111 series), treatment C 20 g a.i./ha pre-planting, Location B
[22] = AHAS3 WT (HETO108+HETO111 series), treatment D 30 g a.i./ha pre-planting, Location A
[23] = AHAS3 WT (HETO108+HETO111 series), treatment D 30 g a.i./ha pre-planting, Location B
[24] = AHAS3 WT (HETO112+HETO111 series), treatment B 10 g a.i./ha pre-planting, Location A
[25] = AHAS3 WT (HETO112+HETO111 series), treatment B 10 g a.i./ha pre-planting, Location B
[26] = AHAS3 WT (HETO112+HETO111 series), treatment C 20 g a.i./ha pre-planting, Location A
[27] = AHAS3 WT (HETO112+HETO111 series), treatment C 20 g a.i./ha pre-planting, Location B
[28] = AHAS3 WT (HETO112+HETO111 series), treatment D 30 g a.i./ha pre-planting, Location A
[29] = AHAS3 WT (HETO112+HETO111 series), treatment D 30 g a.i./ha pre-planting, Location B

COC(=O)c1csc(C)c1S(=O)(=O)NC(=O)n1nc(OC)n(C)c1=O [thiencarbazone-methyl, methyl 4-[(4,5-dihydro-3-methoxy-4-methyl-5-oxo-1H-1,2,4-triazol-1-yl)carbonylsulfamoyl]-5-methylthiophene-3-carboxylate]
establishment (EST1) score Av, 14 days after sowing (AHAS3 HETO111 (HETO108+HETO111 series), treatment B 10 g a.i./ha pre-planting, Location A): 5.00 | emergence (ERG) score Av [1]: 5.00 | establishment (EST1) score Av, 14 days after sowing [1]: 6.00 | emergence (ERG) score Av [2]: 4.67 | establishment (EST1) score Av, 14 days after sowing [2]: 5.33 | emergence (ERG) score Av [3]: 4.00 | establishment (EST1) score Av, 14 days after sowing [3]: 4.67 | emergence (ERG) score Av [4]: 4.33 | establishment (EST1) score Av, 14 days after sowing [4]: 4.33 | emergence (ERG) score Av [5]: 4.00 | establishment (EST1) score Av, 14 days after sowing [5]: 4.33 | emergence (ERG) score Av [6]: 5.33 | establishment (EST1) score Av, 14 days after sowing [6]: 5.67 | emergence (ERG) score Av [7]: 4.67 | establishment (EST1) score Av, 14 days after sowing [7]: 6.00 | emergence (ERG) score Av [8]: 4.33 | establishment (EST1) score Av, 14 days after sowing [8]: 4.67 | emergence (ERG) score Av [9]: 4.67 | establishment (EST1) score Av, 14 days after sowing [9]: 4.67 | emergence (ERG) score Av [10]: 4.33 | establishment (EST1) score Av, 14 days after sowing [10]: 4.33 | emergence (ERG) score Av [11]: 3.67 | establishment (EST1) score Av, 14 days after sowing [11]: 4.00 | emergence (ERG) score Av [12]: 1.00 | establishment (EST1) score Av, 14 days after sowing [12]: 1.00 | emergence (ERG) score Av [13]: 3.00 | establishment (EST1) score Av, 14 days after sowing [13]: 4.33 | emergence (ERG) score Av [14]: 1.00 | establishment (EST1) score Av, 14 days after sowing [14]: 1.00 | emergence (ERG) score Av [15]: 1.67 | establishment (EST1) score Av, 14 days after sowing [15]: 3.67 | emergence (ERG) score Av [16]: 1.00 | establishment (EST1) score Av, 14 days after sowing [16]: 1.00 | emergence (ERG) score Av [17]: 1.33 | establishment (EST1) score Av, 14 days after sowing [17]: 1.33 | emergence (ERG) score Av [18]: 2.33 | establishment (EST1) score Av, 14 days after sowing [18]: 2.67 | emergence (ERG) score Av [19]: 3.33 | establishment (EST1) score Av, 14 days after sowing [19]: 4.33 | emergence (ERG) score Av [20]: 1.00 | establishment (EST1) score Av, 14 days after sowing [20]: 1.00 | emergence (ERG) score Av [21]: 2.33 | establishment (EST1) score Av, 14 days after sowing [21]: 4.00 | emergence (ERG) score Av [22]: 1.00 | establishment (EST1) score Av, 14 days after sowing [22]: 1.00 | emergence (ERG) score Av [23]: 1.33 | establishment (EST1) score Av, 14 days after sowing [23]: 1.00 | emergence (ERG) score Av [24]: 1.00 | establishment (EST1) score Av, 14 days after sowing [24]: 1.00 | emergence (ERG) score Av [25]: 3.67 | establishment (EST1) score Av, 14 days after sowing [25]: 5.00 | emergence (ERG) score Av [26]: 1.00 | establishment (EST1) score Av, 14 days after sowing [26]: 1.00 | emergence (ERG) score Av [27]: 1.67 | establishment (EST1) score Av, 14 days after sowing [27]: 3.33 | emergence (ERG) score Av [28]: 1.00 | establishment (EST1) score Av, 14 days after sowing [28]: 1.00 | emergence (ERG) score Av [29]: 1.33 | establishment (EST1) score Av, 14 days after sowing [29]: 1.67 | establishment (EST2) score, Av (AHAS1 WT/AHAS3 HETO104, 10 g a.i./ha pre-planting (B), Location A): 2.33
